Source: US20200181104A1, “SSAO INHIBITORS AND USES THEREOF” (METACRINE, INC., priority 2018, published 2020)

target: T1, Recombinant Human SSAO/VAP-1/AOC3 (Homo sapiens, UniProt Q16853); assay: Human Semicarbazide-Sensitive Amine Oxidase (SSAO) Assay; assay type: biochemical; conditions: recombinant enzyme, 30 minutes preincubation at 37° C., benzylamine substrate, Amplex Ultra Red/HRP fluorescence
T1 construct: purchased R&D systems 3957-AO
T1 sequence (Q16853 1-763): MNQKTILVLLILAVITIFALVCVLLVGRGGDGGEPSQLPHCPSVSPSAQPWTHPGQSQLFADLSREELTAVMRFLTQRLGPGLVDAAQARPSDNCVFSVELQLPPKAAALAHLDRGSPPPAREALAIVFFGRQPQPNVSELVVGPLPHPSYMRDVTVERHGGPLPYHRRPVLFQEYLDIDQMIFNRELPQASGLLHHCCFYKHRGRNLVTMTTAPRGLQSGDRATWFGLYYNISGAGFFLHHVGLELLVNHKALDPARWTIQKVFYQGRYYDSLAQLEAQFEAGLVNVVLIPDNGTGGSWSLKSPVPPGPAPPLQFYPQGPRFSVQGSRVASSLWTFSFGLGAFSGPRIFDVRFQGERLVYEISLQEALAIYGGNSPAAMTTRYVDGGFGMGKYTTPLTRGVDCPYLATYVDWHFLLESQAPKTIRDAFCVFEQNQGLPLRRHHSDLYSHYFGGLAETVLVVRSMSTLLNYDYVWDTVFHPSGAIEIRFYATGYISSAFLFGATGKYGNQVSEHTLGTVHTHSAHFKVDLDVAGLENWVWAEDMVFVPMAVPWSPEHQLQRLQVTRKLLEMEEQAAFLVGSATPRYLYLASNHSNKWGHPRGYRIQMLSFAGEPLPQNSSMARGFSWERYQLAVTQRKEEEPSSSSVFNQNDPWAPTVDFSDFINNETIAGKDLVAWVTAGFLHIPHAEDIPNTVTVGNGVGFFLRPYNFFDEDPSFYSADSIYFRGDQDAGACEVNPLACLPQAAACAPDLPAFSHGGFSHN
Method in brief: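 IC50 from kinetic Amplex Ultra Red/HRP fluorescence (ex 544, em 590 nm, 30-120 min) after benzylamine addition. Beforehand, 6-10 compound dilutions were preincubated 30 min at 37 °C with recombinant human SSAO in 50 mM HEPES (enzyme working concentration 2.5 μg/ml).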

| SMILES | IC50 |
| --- | --- |
| COc1cccc(CNC(=O)C23CCC(c4ccc(OC/C(=C/F)CN)cc4)(CC2)CC3)c1 [Compound 2.127, (E)-4-(4-((2-(aminomethyl)-3-fluoroallyl)oxy)phenyl)-N-(3-methoxybenzyl)bicyclo[2.2.2] octane-1-carboxamide] | ≤ 10 nM |
| COc1ccccc1CNC(=O)C12CCC(c3ccc(OC/C(=C/F)CN)cc3)(CC1)CC2 [Compound 2.128, (E)-4-(4-((2-(aminomethyl)-3-fluoroallyl)oxy)phenyl)-N-(2-methoxybenzyl)bicyclo[2.2.2] octane-1-carboxamide] | ≤ 10 nM |
| NC/C(=C\F)COc1ccc(C23CCC(C(=O)NCc4cnccn4)(CC2)CC3)cc1 [Compound 2.129, (E)-4-(4-((2-(aminomethyl)-3-fluoroallyl)oxy)phenyl)-N-(pyrazin-2-ylmethyl)bicyclo[2.2.2]octane-1-carboxamide] | ≤ 10 nM |
| COc1cccc(CNC(=O)C23CCC(c4ccc(OC/C(=C/F)CN)cc4)(CC2)CC3)n1 [Compound 2.130, (E)-4-(4-((2-(aminomethyl)-3-fluoroallyl)oxy)phenyl)-N-((6-methoxypyridin-2-yl)methyl)bicyclo[2.2.2]octane-1-carboxamide] | ≤ 10 nM |
| NC/C(=C\F)COc1ccc(C23CCC(C(=O)NC4CCC5(CCOCC5)CC4)(CC2)CC3)cc1 [Compound 2.131, (E)-4-(4-((2-(aminomethyl)-3-fluoroallyl)oxy)phenyl)-N-(3-oxaspiro[5.5]undecan-9-yl)bicyclo[2.2.2]octane-1-carboxamide] | ≤ 10 nM |
| COCC(C)(C)CNC(=O)C12CCC(c3ccc(OC/C(=C/F)CN)cc3)(CC1)CC2 [Compound 2.132, (E)-4-(4-((2-(aminomethyl)-3-fluoroallyl)oxy)phenyl)-N-(3-methoxy-2,2-dimethylpropyl)bicyclo[2.2.2] octane-1-carboxamide] | ≤ 10 nM |
| CO[C@@H]1CCN(C(=O)C23CCC(c4ccc(OC/C(=C/F)CN)cc4)(CC2)CC3)C1 [Compound 2.133, (R,E)-(4-(4-((2-(aminomethyl)-3-fluoroallyl)oxy)phenyl)bicyclo[2.2.2]octan-1-yl)(3-methoxypyrrolidin-1-yl)methanone] | ≤ 10 nM |
| COc1cc(CNC(=O)C23CCC(c4ccc(OC/C(=C/F)CN)cc4)(CC2)CC3)ccn1 [Compound 2.134, (E)-4-(4-((2-(aminomethyl)-3-fluoroallyl)oxy)phenyl)-N-((2-methoxpyridin-4-yl)methyl)bicyclo[2.2.2]octane-1-carboxamide] | ≤ 10 nM |
| NC/C(=C\F)COc1ccc(C23CCC(C(=O)NC4CC(F)(F)C4)(CC2)CC3)cc1 [Compound 2.135, (E)-4-(4-((2-(aminomethyl)-3-fluoroallyl)oxy)phenyl)-N-(3,3-difluorocyclobutyl)bicyclo[2.2.2] octane-1-carboxamide] | ≤ 10 nM |
| CC1(C)CC(NC(=O)C23CCC(c4ccc(OC/C(=C/F)CN)cc4)(CC2)CC3)C1 [Compound 2.136, (E)-4-(4-((2-(aminomethyl)-3-fluoroallyl)oxy)phenyl)-N-(3,3-dimethylcyclobutyl)bicyclo [2.2.2]octane-1-carboxamide] | ≤ 10 nM |
| COc1ncccc1CNC(=O)C12CCC(c3ccc(OC/C(=C/F)CN)cc3)(CC1)CC2 [Compound 2.137, (E)-4-(4-((2-(aminomethyl)-3-fluoroallyl)oxy)phenyl)-N-((2-methoxypyridin-3-yl)methyl)bicyclo[2.2.2]octane-1-carboxamide] | ≤ 10 nM |
| COC(C)(C)CCNC(=O)C12CCC(c3ccc(OC/C(=C/F)CN)cc3)(CC1)CC2 [Compound 2.138, (E)-4-(4-((2-(aminomethyl)-3-fluoroallyl)oxy)phenyl)-N-(3-methoxy-3-methylbutyl)bicyclo[2.2.2] octane-1-carboxamide] | ≤ 10 nM |
| NC/C(=C\F)COc1ccc(C23CCC(C(=O)NCc4ccnnc4)(CC2)CC3)cc1 [Compound 2.139, (E)-4-(4-((2-(aminomethyl)-3-fluoroallyl)oxy)phenyl)-N-(pyridazin-4-ylmethyl)bicyclo[2.2.2]octane-1-carboxamide] | ≤ 10 nM |

Other lines, results leading:

| IC50 | SMILES |
| --- | --- |
| ≤ 10 nM | COc1nccc(CNC(=O)C23CCC(c4ccc(OC/C(=C/F)CN)cc4)(CC2)CC3)n1 [Compound 2.140, (E)-4-(4-((2-(aminomethyl)-3-fluoroallyl)oxy)phenyl)-N-((2-methoxypyrimidin-4-yl)methyl)bicyclo[2.2.2]octane-1-carboxamide] |
| ≤ 10 nM | COc1ccc(CNC(=O)C23CCC(c4ccc(OC/C(=C/F)CN)cc4)(CC2)CC3)cn1 [Compound 2.141, (E)-4-(4-((2-(aminomethyl)-3-fluoroallyl)oxy)phenyl)-N-((6-methoxpyridin-3-yl)methyl)bicyclo[2.2.2]octane-1-carboxamide] |
| ≤ 10 nM | NC/C(=C\F)COc1ccc(C23CCC(C(=O)N4CC5(CCCCO5)C4)(CC2)CC3)cc1 [Compound 2.143, (E)-(4-(4-((2-(aminomethyl)-3-fluoroallyl)oxy)phenyl)bicyclo [2.2.2]octan-1-yl)(5-oxa-2-azaspiro[3.5]nonan-2-yl)methanone] |
| ≤ 10 nM | COC1(CNC(=O)C23CCC(c4ccc(OC/C(=C/F)CN)cc4)(CC2)CC3)CC1 [Compound 2.144, (E)-4-(4-((2-(aminomethyl)-3-fluoroallyl)oxy)phenyl)-N-((1-methoxycyclopropyl)methyl) bicyclo[2.2.2]octane-1-carboxamide] |
| ≤ 10 nM | CO[C@H]1C[C@H](CNC(=O)C23CCC(c4ccc(OC/C(=C/F)CN)cc4)(CC2)CC3)C1 [Compound 2.145, 4-(4-(((E)-2-(aminomethyl)-3-fluoroallyl)oxy)phenyl)-N-(((1r,3r)-3-methoxycyclobutyl)methyl) bicyclo[2.2.2]octane-1-carboxamide] |
| ≤ 10 nM | CCOC1CC(NC(=O)C23CCC(c4ccc(OC/C(=C/F)CN)cc4)(CC2)CC3)C1 (centres unmarked) [Compound 2.146, 4-(4-(((E)-2-(aminomethyl)-3-fluoroallyl)oxy)phenyl)-N-((1r,3r)-3-ethoxycyclobutyl)bicyclo[2.2.2] octane-1-carboxamide] |
| ≤ 10 nM | COC1(CCNC(=O)C23CCC(c4ccc(OC/C(=C/F)CN)cc4)(CC2)CC3)CCC1 [Compound 2.147, (E)-4-(4-((2-(aminomethyl)-3-fluoroallyl)oxy)phenyl)-N-(2-(1-methoxycyclobutyl)ethyl) bicyclo[2.2.2]octane-1-carboxamide] |
| ≤ 10 nM | CO[C@H]1C[C@H](CNC(=O)C23CCC(c4ccc(OC/C(=C/F)CN)cc4)(CC2)CC3)C1 [Compound 2.148, 4-(4-(((E)-2-(aminomethyl)-3-fluoroallyl)oxy)phenyl)-N-(((1s,3s)-3-methoxycyclobutyl)methyl) bicyclo[2.2.2]octane-1-carboxamide] |
| ≤ 10 nM | CCO[C@H]1C[C@@H](NC(=O)C23CCC(c4ccc(OC/C(=C/F)CN)cc4)(CC2)CC3)C1 [Compound 2.150, 4-(4-(((E)-2-(aminomethyl)-3-fluoroallyl)oxy)phenyl)-N-((1s,3s)-3-ethoxycyclobutyl)bicyclo[2.2.2] octane-1-carboxamide] |
| ≤ 10 nM | COCC1(CNC(=O)C23CCC(c4ccc(OC/C(=C/F)CN)cc4)(CC2)CC3)CC1 [Compound 2.151, (E)-4-(4-((2-(aminomethyl)-3-fluoroallyl)oxy)phenyl)-N-((1-(methoxymethyl)cyclopropyl)methyl)bicyclo[2.2.2]octane-1-carboxamide] |
